Data: BindingDB's records for doi:10.1021/jm801327q (Cnrs, 2009)

Experiments:
[1] = target: 5-hydroxytryptamine receptor 4 (Homo sapiens, UniProt Q13639); assay: Radioligand Binding Assay (Ki) and cAMP Accumulation Assay (EC50); details: pH 7.4; 25 °C
Description: Nonspecific binding was determined with 10 uM GR113808. After incubation, the reaction was terminated by filtration through Whatman GF/B. Radioactivity was measured using a Beckman model LS6500C liquid scintillation counter. Binding data are expressed as a percentage of displacement for the screening of the library compounds. For selected compounds, Ki were analyzed by computer-assisted nonlinear regression analysis (Prism, Graphpad Software, San Diego, CA). EC50 values correspond to the concentration of agonists required to obtain half maximal stimulation of adenylyl cyclase. […] The data are the results of two or three independent determinations performed in triplicate.

[2] = target: Amyloid-beta precursor protein (Homo sapiens) (UniProt P05067); assay: EC/IC50 was the effective concentration of agonist inhibiting the formation of A-beta fibrils to 50% of the control value. Three independent measurements were made for all cases.
Sequence of Amyloid-beta precursor protein (Homo sapiens) (P05067 whole entry, looked up): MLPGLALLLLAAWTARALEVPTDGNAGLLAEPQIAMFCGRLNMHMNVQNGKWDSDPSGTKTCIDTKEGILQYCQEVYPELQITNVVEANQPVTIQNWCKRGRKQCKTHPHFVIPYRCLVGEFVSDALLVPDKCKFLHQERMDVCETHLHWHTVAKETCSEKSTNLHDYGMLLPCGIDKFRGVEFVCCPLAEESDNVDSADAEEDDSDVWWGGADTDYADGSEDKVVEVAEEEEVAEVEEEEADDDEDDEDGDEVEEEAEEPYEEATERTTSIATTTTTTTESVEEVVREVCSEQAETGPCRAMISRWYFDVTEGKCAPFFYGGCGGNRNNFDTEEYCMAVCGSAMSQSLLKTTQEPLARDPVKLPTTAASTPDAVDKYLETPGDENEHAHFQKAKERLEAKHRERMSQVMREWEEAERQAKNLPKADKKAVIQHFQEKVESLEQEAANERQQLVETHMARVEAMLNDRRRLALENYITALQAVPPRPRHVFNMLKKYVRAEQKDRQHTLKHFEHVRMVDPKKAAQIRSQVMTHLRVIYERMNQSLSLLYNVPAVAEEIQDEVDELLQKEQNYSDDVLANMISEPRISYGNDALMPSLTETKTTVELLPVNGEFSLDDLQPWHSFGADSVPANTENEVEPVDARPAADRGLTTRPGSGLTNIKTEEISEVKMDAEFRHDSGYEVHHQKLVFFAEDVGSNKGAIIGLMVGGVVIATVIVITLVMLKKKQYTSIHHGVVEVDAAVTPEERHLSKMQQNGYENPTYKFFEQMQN

Sequence of 5-hydroxytryptamine receptor 4 (Q13639 whole entry): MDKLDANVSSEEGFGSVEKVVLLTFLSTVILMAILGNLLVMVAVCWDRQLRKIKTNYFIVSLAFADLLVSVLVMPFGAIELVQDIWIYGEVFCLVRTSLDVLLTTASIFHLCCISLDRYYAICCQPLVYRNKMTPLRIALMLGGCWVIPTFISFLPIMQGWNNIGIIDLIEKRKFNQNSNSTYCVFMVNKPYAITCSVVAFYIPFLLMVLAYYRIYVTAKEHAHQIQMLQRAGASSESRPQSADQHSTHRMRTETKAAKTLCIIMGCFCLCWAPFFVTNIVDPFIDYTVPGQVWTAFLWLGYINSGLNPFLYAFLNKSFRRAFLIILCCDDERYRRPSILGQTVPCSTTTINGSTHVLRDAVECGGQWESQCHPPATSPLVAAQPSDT

EC50 [1]	Ki [1]	EC50 [2]	Compound
4 nM	111 nM	–	COc1cc(N)c(Cl)cc1C(=O)OCCN1CCC(NC(=O)CCCCCN2C(=O)c3cccc4c(N)ccc(c34)C2=O)CC1 [ML10302 scaffold, 9{a;y}]
–	–	9000 nM	COc1cc(N)c(Cl)cc1C(=O)OCCN1CCC(NC(=O)CCCNCCCc2ccc(CCCNCCCC(=O)NC3CCN(CCOC(=O)c4cc(Cl)c(N)cc4OC)CC3)cc2)CC1 [ML10302 scaffold, 14]
